In patent US9884063B2, “Amido-substituted azole compounds” (Bayer Pharma Aktiengesellschaft, priority 2014, dated 2018):

Assays:
[1] = test system: HEK293 FOP control reporter cell line; assay: HEK293 FOP Assay (FOP control vector luciferase reporter); type: cell-based; details: Homo sapiens
Procedure: In a parallel approach, HEK293 cells were cotransfected with the FOP control vector and pcDNA3. The FOP vector is identical to the TOP construct, but it contains instead of functional TCF elements a randomized, non-functional sequence. For this transfection a stable transfected cell line was generated as well, based on selection with Geneticin (1 mg/ml).
In preparation of the assay, the two cell lines were plated 24 hrs before beginning the test at 10000 cells per well in a 384 micro titre plate (MTP) in 30 μl growth medium. […] The recombinant human Wnt-3a was thereby applied between 2500 and 5 ng/ml in two-fold dilution steps.
Selective inhibitory activity for small molecules on the wildtype Wnt pathway was determined after parallel incubation of both (TOP and FOP) HEK293 reporter cell lines with a compound dilution series from 50 μM to 15 nM in steps of 3.16-fold dilutions in CAFTY buffer (130 mM sodium chloride, 5 mM potassium chloride, 20 mM HEPES, 1 mM magnesium chloride, 5 mM sodium bicarbonate, pH 7.4) containing 2 mM Ca^2+ and 0.01% BSA.
The compounds were thereby serially prediluted in 100% DMSO and thereafter 50 fold into the CAFTY compound dilution buffer (described above).

[2] = test system: wildtype Wnt signaling cascade; assay: HEK293 TOP Assay (Super TopFlash luciferase reporter, Wnt-3a stimulated); type: cell-based; details: Homo sapiens, HEK293, 16 h
Method in brief: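 Compounds (50 μM down to 15 nM, 3.16-fold steps, in CAFTY buffer pH 7.4, 2 mM Ca2+, 0.01% BSA) tested in parallel on TOP and FOP HEK293 reporter lines to define selective wildtype Wnt inhibition. Pathway driven by recombinant human Wnt-3a applied at 2500–5 ng/ml in two-fold dilutions.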

[3] = HEK293 FOP control reporter cell line, 16 hours incubation, compound dilution series 50 μM to 15 nM
[4] = HEK293 TOP reporter cell line, Wnt-3a at EC50, 16 hours incubation, compound dilution series 50 μM to 15 nM

| Structure (SMILES) | IC50 [2, 4] [µM] | IC50 ([2]; HEK293 TOP reporter cells, Wnt3a at EC50, 16 hours, luciferase) [µM] | IC50 [1, 3] [µM] | IC50 ([1]; HEK293 FOP control reporter cells, 16 hours, luciferase, dilution series from 50 μM) [µM] |
| --- | --- | --- | --- | --- |
| CN1CCN(C(C)(C)CNC(=O)c2[nH]cnc2C(=O)Nc2ccc(NC(=O)c3ccccc3Cl)cc2)CC1 [Example 202, N^4-{4-[(2-chlorobenzoyl)amino]phenyl}-N^5-[2-methyl-2-(4-methylpiperazin-1-yl)propyl]-1H-imidazole-4,5-dicarboxamide] | 1.6 | – | 9.8 | – |
| O=C(Nc1ccc(NC(=O)c2nc[nH]c2C(=O)NCCCCN2CCCCC2)cc1)c1ccc(F)cc1 [Example 201, N^4-{4-[(4-fluorobenzoyl)amino]phenyl}-N^5-[4-(piperidin-1-yl)butyl]-1H-imidazole-4,5-dicarboxamide] | 4.5 | – | 0.03 | – |
| O=C(Nc1ccc(NC(=O)c2nc[nH]c2C(=O)NCCCN2CCCC2=O)cc1)c1ccc(F)cc1Cl [Example 299, N^4-{4-[(2-chloro-4-fluorobenzoyl)amino]phenyl}-N^5-[3-(2-oxopyrrolidin-1-yl)-propyl]-1H-imidazole-4,5-dicarboxamide] | 0.74 | – | 43 | – |
| CC(C)(C)NC(=O)c1[nH]cnc1C(=O)Nc1ccc(NC(=O)c2ccc(F)cc2)cc1 [Example 129, N^5-tert-butyl-N^4-{4-[(4-fluorobenzoyl)amino]phenyl}-1H-imidazole-4,5-dicarboxamide] | 6.75 | – | 15 | – |
| COC(=O)c1nc[nH]c1C(=O)Nc1ccc(NC(=O)c2ccc(F)cc2Cl)c(C)c1 [Example 83, methyl 5-({4-[(2-chloro-4-fluorobenzoyl)amino]-3-methylphenyl}carbamoyl)-1H-imidazole-4-carboxylate] | 0.39 | – | 29 | – |
| CNC(=O)c1nc[nH]c1C(=O)Nc1ccc(NC(=O)c2cc(Cl)cc(Cl)c2)cc1 [Example 327, N^5-{4-[(3,5-dichlorobenzoyl)amino]phenyl}-N^4-methyl-1H-imidazole-4,5-dicarboxamide] | 39.5 | – | 37 | – |
| CNC(=O)c1nc[nH]c1C(=O)Nc1ccc(NC(=O)c2ccc(N(C)C)cc2)cc1 [Example 315, N^5-(4-{[4-(dimethylamino)benzoyl]amino}phenyl)-N^4-methyl-1H-imidazole-4,5-dicarboxamide] | 14 | – | 41 | – |
| CC1CCCN(CCNC(=O)c2[nH]cnc2C(=O)Nc2ccc(NC(=O)c3ccc(F)cc3)cc2)C1 (stereo not shown) [Example 211, N^4-{4-[(4-fluorobenzoyl)amino]phenyl}-N^5-[2-(3-methylpiperidin-1-yl)ethyl]-1H-imidazole-4,5-dicarboxamide] | 0.77 | – | 24 | – |
| CNC(=O)c1nc[nH]c1C(=O)Nc1ccc(NC(=O)c2cccc(C(F)(F)F)c2)cc1 [Example 314, N^4-methyl-N^5-(4-{[3-(trifluoromethyl)benzoyl]amino}phenyl)-1H-imidazole-4,5-dicarboxamide] | 6.9 | – | 24 | – |
| CNC(=O)c1nc[nH]c1C(=O)Nc1ccc(NC(=O)c2cccc(Cl)c2C)cc1 [Example 341, N^5-{4-[(3-chloro-2-methylbenzoyl)amino]phenyl}-N^4-methyl-1H-imidazole-4,5-dicarboxamide] | 2.65 | – | 45 | – |
| O=C(Nc1ccc(NC(=O)c2nc[nH]c2C(=O)NCCN2CCCC(O)C2)cc1)c1ccc(F)cc1 (stereo not shown) [Example 167, N^4-{4-[(4-fluorobenzoyl)amino]phenyl}-N^5-[2-(3-hydroxypiperidin-1-yl)ethyl]-1H-imidazole-4,5-dicarboxamide] | 1.45 | – | 44 | – |
| CC1CCN(CC(C)(C)NC(=O)c2[nH]cnc2C(=O)Nc2ccc(NC(=O)c3ccc(F)cc3)cc2)CC1 [Example 175, N^4-{4-[(4-fluorobenzoyl)amino]phenyl}-N^5-[2-methyl-1-(4-methylpiperidin-1-yl)propan-2-yl]-1H-imidazole-4,5-dicarboxamide] | 3.5 | – | 27 | – |
| CN1CCN(CC(C)(C)NC(=O)c2[nH]cnc2C(=O)Nc2ccc(NC(=O)c3ccccc3Cl)cc2)CC1 [Example 203, N^4-{4-[(2-chlorobenzoyl)amino]phenyl}-N^5-[2-methyl-1-(4-methylpiperazin-1-yl)propan-2-yl]-1H-imidazole-4,5-dicarboxamide] | 3.05 | – | 28 | – |
| CNC(=O)c1nc[nH]c1C(=O)Nc1ccc(NC(=O)c2ccc(OC)c(OC)c2OC)cc1 [Example 40, N^4-methyl-N^5-{4-[(2,3,4-trimethoxybenzoyl)amino]phenyl}-1H-imidazole-4,5-dicarboxamide] | 12 | 12 | – | ≥ 50 |

Continued, in another order:

| IC50 [2, 4] [µM] | IC50 ([2]; HEK293 TOP reporter cells, Wnt3a at EC50, 16 hours, luciferase) [µM] | Structure (SMILES) | IC50 [1, 3] [µM] | IC50 ([1]; HEK293 FOP control reporter cells, 16 hours, luciferase, dilution series from 50 μM) [µM] |
| --- | --- | --- | --- | --- |
| 7.25 | – | CC(C)c1nc(C(=O)Nc2ccc(NC(=O)c3ccc(F)cc3Cl)cc2)c(C(=O)NCCN(C)C)[nH]1 [Example 107, N^4-{4-[(2-chloro-4-fluorobenzoyl)amino]phenyl}-N^5-[2-(dimethylamino)ethyl]-2-isopropyl-1H-imidazole-4,5-dicarboxamide] | 39 | – |
| 1.01 | – | CN1CCN(CC(C)(C)NC(=O)c2[nH]cnc2C(=O)Nc2ccc(NC(=O)c3ccc(F)cc3)cc2)CC1 [Example 195, N^4-{4-[(4-fluorobenzoyl)amino]phenyl}-N^5-[2-methyl-1-(4-methylpiperazin-1-yl)propan-2-yl]-1H-imidazole-4,5-dicarboxamide] | 12 | – |
| 5.9 | – | CN1CCN(C(C)(C)CNC(=O)c2[nH]cnc2C(=O)Nc2ccc(NC(=O)c3ccc(F)cc3)cc2)CC1 [Example 188, N^4-{4-[(4-fluorobenzoyl)amino]phenyl}-N^5-[2-methyl-2-(4-methylpiperazin-1-yl)propyl]-1H-imidazole-4,5-dicarboxamide] | 15 | – |
| 0.51 | – | COC(=O)c1nc[nH]c1C(=O)Nc1ccc(NC(=O)c2ccccc2Cl)c(F)c1 [Example 79, methyl-5-({4-[(2-chlorobenzoyl)amino]-3-fluorophenyl}carbamoyl)-1H-imidazole-4-carboxylate] | 8.2 | – |
| 1.65 | – | COc1cc(NC(=O)c2[nH]cnc2C(=O)NCCN2CCCCC2)ccc1NC(=O)c1ccc(F)cc1 [Example 105, N^5-{4-[(4-fluorobenzoyl)amino]-3-methoxyphenyl}-N^4-[2-(piperidin-1-yl)ethyl]-1H-imidazole-4,5-dicarboxamide] | 29 | – |
| 0.47 | – | CCN(CC)CCCC(C)NC(=O)c1nc[nH]c1C(=O)Nc1ccc(NC(=O)c2ccc(F)cc2Cl)cc1 (stereo not shown) [Example 380, N^5-{4-[(2-chloro-4-fluorobenzoyl)amino]phenyl}-N^4-[5-(diethylamino)pentan-2-yl]-1H-imidazole-4,5-dicarboxamide] | 24 | – |
| 0.41 | – | CN1CCN(CC(C)(C)NC(=O)c2[nH]cnc2C(=O)Nc2ccc(NC(=O)c3ccc(F)cc3Cl)cc2)CC1 [Example 194, N^4-{4-[(2-chloro-4-fluorobenzoyl)amino]phenyl}-N^5-[2-methyl-1-(4-methylpiperazin-1-yl)propan-2-yl]-1H-imidazole-4,5-dicarboxamide] | 2.3 | – |
| 8.9 | – | CNC(=O)c1nc[nH]c1C(=O)Nc1ccc(NC(=O)c2cccc(F)c2F)cc1 [Example 319, N^5-{4-[(2,3-difluorobenzoyl)amino]phenyl}-N^4-methyl-1H-imidazole-4,5-dicarboxamide] | 37 | – |
| 0.46 | – | O=C(Nc1ccc(NC(=O)c2nc[nH]c2C(=O)NCCN2CCCC(O)C2)cc1)c1ccccc1Cl (stereo not shown) [Example 152, N^4-{4-[(2-chlorobenzoyl)amino]phenyl}-N^5-{2-[3-hydroxypiperidin-1-yl]ethyl}-1H-imidazole-4,5-dicarboxamide] | 30 | – |
| 6.95 | – | Cc1cc(NC(=O)c2[nH]cnc2C(=O)NCCN(C)C)ccc1NC(=O)c1ccc(F)cc1 [Example 92, N^4-[2-(dimethylamino)ethyl]-N^5-{4-[(4-fluorobenzoyl)amino]-3-methylphenyl}-1H-imidazole-4,5-dicarboxamide] | 13 | – |
